Experimental data reported in patent publication EP4789665A1, “TREATMENT OF HIS HYPORESPONDERS” (NewAmsterdam Pharma B.V., priority 2021, dated 2023).

Experiment: Phase 2 study of obicetrapib as adjunct to high-intensity statin therapy: safety and tolerability (adverse events, laboratory values, vital signs)
Type: in vivo, human
Conditions: for Neoplasms benign, malignant and unspecified: including cysts and polyps; for AEs, total: subjects (%): safety population
Experimental: Patients were randomly assigned to receive one of the three treatments investigative treatments. All treatments were to be taken once daily with food for 8 weeks. Safety was assessed throughout the trial by monitoring adverse events and concomitant medication use, 12-lead electrocardiograms (ECGs), vital signs, laboratory safety assessments and physical examinations. Additional assessments included salivary cortisol, plasma aldosterone, high-sensitivity C-reactive protein (hsCRP) and endothelin 1.
Safety and tolerability profiles of obicetrapib assessed by clinical laboratory values and incidence of adverse events (AEs).
The primary outcome measure was LDL-C (percent change). Secondary outcome measures included ApoB, Non-HDL-C and HDL-C (percent change). The Intent-to-Treat (ITT) Population included all participants randomized into the study. The Modified ITT (mITT) Population included all participants in the ITT Population who receive at least 1 dose of any study drug and have a baseline value for the LDL-C assessment. The Safety Population included all participants who receive at least 1 dose of any study drug. The mITT Population was the primary population for the efficacy analyses. The primary efficacy analysis of the percent change in LDL-C was performed using a mixed model for repeated measures (MMRM) approach. In order to maintain the overall Type I error rate, the secondary efficacy endpoints were tested sequentially at the 0.05 significance level according to the pre-specified order of hierarchy. All safety endpoints were summarized descriptively. No statistical inference was applied to the safety endpoints. Plasma obicetrapib concentrations were summarized with descriptive statistics based on the PK Population.

[1] = 5 mg group (N=40), listed as obicetrapib
[2] = 10 mg group (N=40), listed as obicetrapib
[3] = either obicetrapib treatment group (5 mg, 10 mg) compared with placebo

## CCOC(=O)N1c2ccc(C(F)(F)F)cc2[C@@H](N(Cc2cc(C(F)(F)F)cc(C(F)(F)F)c2)c2ncc(OCCCC(=O)O)cn2)C[C@H]1CC [Obicetrapib, (2R,4S)-4-{[3,5-bis(trifluoromethyl)benzyl]-[5-(3-carboxypropoxy)pyrimidin-2-yl]amino}-2-ethyl-6-trifluoromethyl-3,4-dihydro-2H-quinoline-1-carboxylic acid ethyl ester]
5 mg (n=40)
  Basal cell carcinoma: 0 (0.0) n (%)
  Fatigue: 2 (5.0) n (%)
  Gastrointestinal disorders: 3 (7.5) n (%)
  General disorders and administration site conditions: 3 (7.5) n (%)
  Hypertension: 2 (5.0) n (%)
  Infections and infestations: 1 (2.5) n (%)
  Injury, poisoning and procedural complications: 3 (7.5) n (%)
  Investigations: 2 (5.0) n (%)
  Metabolism and nutrition disorders: 2 (5.0) n (%)
  Muscle spasms: 0 (0.0) n (%)
  Musculoskeletal and connective tissue disorders: 4 (10.0) n (%)
  Nausea: 1 (2.5) n (%)
  Nervous system disorders: 2 (5.0) n (%)
  Respiratory, thoracic and mediastinal disorders: 2 (5.0) n (%)
  Type 2 diabetes mellitus: 2 (5.0) n (%)
  Vascular disorders: 2 (5.0) n (%)
  Neoplasms benign, malignant and unspecified: 0 (0.0) n (%)
5 mg and 10 mg on top of high intensity statin therapy
  tolerability / safety profile: well tolerated with a safety profile similar to placebo
5 mg group (N=40)
  AEs, related: number of events: 2
  AEs, related: subjects (%): 2 (5.0)
  AEs, severe: 0
  AEs, total: number of events: 24
  Deaths: 0
  SAEs, related: 0
  SAEs, total: 0
  TEAEs leading to discontinuation of study drug: 0
  TESAEs leading to discontinuation of study: 0
  AEs, total: subjects (%): 13 (32.5)
[1]
  AEs, total: subjects (%): 15
  AEs, related: subjects (%): 2
10 mg (n=40)
  Basal cell carcinoma: 0 (0.0) n (%)
  Fatigue: 1 (2.5) n (%)
  Gastrointestinal disorders: 0 (0.0) n (%)
  General disorders and administration site conditions: 2 (5.0) n (%)
  Hypertension: 0 (0.0) n (%)
  Infections and infestations: 0 (0.0) n (%)
  Injury, poisoning and procedural complications: 1 (2.5) n (%)
  Investigations: 0 (0.0) n (%)
  Metabolism and nutrition disorders: 0 (0.0) n (%)
  Muscle spasms: 0 (0.0) n (%)
  Musculoskeletal and connective tissue disorders: 4 (10.0) n (%)
  Nausea: 0 (0.0) n (%)
  Nervous system disorders: 2 (5.0) n (%)
  Respiratory, thoracic and mediastinal disorders: 0 (0.0) n (%)
  Type 2 diabetes mellitus: 0 (0.0) n (%)
  Vascular disorders: 0 (0.0) n (%)
  Neoplasms benign, malignant and unspecified: 0 (0.0) n (%)
10 mg group (N=40)
  AEs, related: number of events: 1
  AEs, related: subjects (%): 1 (2.5)
  AEs, severe: 0
  AEs, total: number of events: 11
  Deaths: 0
  SAEs, related: 0
  SAEs, total: 0
  TEAEs leading to discontinuation of study drug: 0
  TESAEs leading to discontinuation of study: 0
  AEs, total: subjects (%): 8 (20.0)
[2]
  AEs, total: subjects (%): 8
  AEs, related: subjects (%): 1
[3]
  laboratory parameters (chemistry, hematology, urinalysis): no signals in any laboratory parameters
  vital signs: no changes in vital signs
